The text below walks through data of publication PMC4493460, “Increasing the Biological Stability Profile of a New Chemical Entity, UPEI-104, and Potential Use as a Neuroprotectant Against Reperfusion-Injury” (Brain Sciences, 2015).

On the set-up of data set [1]: method as in PMID 21172313. Conditions: cited from earlier work.
Data set [2] can be described thus: Stability in human plasma (Cerep, HPLC-MS/MS). The data set is classed as in vitro ADME. As to conditions: 1.0E−06 M, 37 °C; for half-life at 1 µM: human, plasma, 0-120 min. As for the experimental part:
The detection method was HPLC-MS/MS. At the end of incubation at each of the time points, acetonitrile was added to the incubation mixture followed by centrifugation. Samples were analyzed by HPLC-MS/MS and peak areas were recorded for each analyte. The area of precursor compound remaining after each of the time points relative to the amount remaining at time zero, expressed as percent, was calculated. […] Further experimental detail may be found in [30].
Further experimental detail may be found in [32].

The test system of another data set is NADPH oxidase. Also on record: method as in PMID 22277933, PMID 18511205. Conditions: compared with apocynin alone; cited from earlier work.
On the set-up of data set [3]: method as in PMID 22277933. As to conditions: animals injected i.v.; immediately, as early as 1 min after injection; previous work; cited from earlier work.
A further data set is described as follows: in vitro. As to conditions: for microsomal CLint at 100 nM / % Compound Remaining, 1st / % Compound Remaining, 2nd / % Compound Remaining, Mean / half-life at 100 nM: human, microsomes; for % Compound Remaining, 1st / % Compound Remaining, 2nd / % Compound Remaining, Mean: 100 nM. As for the experimental part:
Briefly, incubation was performed at 37 °C for times between 0 and 60 min as indicated. The detection method was HPLC-MS/MS. Intrinsic clearance from microsomes (S9, cryopreserved hepatocytes, recombinant CYP, recombinant UGT) was assayed. Metabolic stability, expressed as percent of the parent compound remaining, was calculated by comparing the peak area of the compound at the time point relative to that at time 0. The half-life (T1/2) was estimated from the slope of the initial linear range of the logarithmic curve of compound remaining (%) vs. time, assuming the first-order kinetics.
A solution of each test compound (1000 ng/mL or 10 μM) was prepared as described above and infused into the TSQ Quantum source via syringe pump at a constant rate. Full scan MS analysis was conducted and total ion current chromatograms and corresponding mass spectra were generated for each test compound in both positive and negative ionization modes. The precursor ions for MS/MS were selected from either the positive or the negative mass spectrum, as a function of the respective ion abundance. In addition, product ion MS/MS analysis was performed in order to determine the appropriate selected fragmentation reaction for use in quantitative analysis. The final reaction monitoring parameters were chosen to maximize the ability to quantify the test compound when present within a complex mixture of components. Following identification of the specific SRM transition to be used for each test compound, the detection parameters were optimized using the automated protocol in the TSQ Quantum Compound Optimization Workspace software package (Thermo Scientific, MA, USA). Finally, the chromatographic conditions to be used for LC-MS analysis were identified by injection and separation of the analyte on a suitable LC column and adjustment of the gradient conditions as necessary. Further experimental detail may be found in [32].
Mobile Phase B: 6 mM ammonium formate/3 mM formic acid in water/acetonitryl (ACN; 1/9, v/v). Column: Hypersil GOLD DASH HTS, 2.1 × 20 mm, 3 micron (Thermo Scientific, MA, USA; see Table 1 for details).

For data set [4], the system named is infarct volume following tMCAO. Also on record: method as in PMID 22277933. Conditions: cited from earlier work.
Data set [5] relates to infarct volume following tMCAO. In words: Transient middle cerebral artery occlusion (tMCAO) ischemia-reperfusion injury, infarct volume by TTC staining. It is filed as in vivo, Sprague-Dawley rats. As to conditions: rats, 30 min occlusion, 5.5 h reperfusion. The method, then:
All surgical procedures described below were approved by the University of Prince Edward Island Animal Care Committee and were in compliance with the requirements of the Canadian Council on Animal Care. Our surgical protocol has been described previously. Briefly, rats were anaesthetized with sodium thiobutabarbital (Inactin, Sigma Aldrich, St. Louis, MO, USA; 100 mg/kg, intraperitoneal; i.p.) and kept warm on a heating pad maintained at 37 ± 1 °C. A venous cannula was inserted into the right femoral vein to allow for all drug injections and supplemental anaesthesia, if required. Rats were then transferred to a stereotaxic frame to allow for surgical access to the right middle cerebral artery (MCA). As detailed in our previous publication, we used a 3-point occlusion of the MCA by inserting suture under the vessel and applying pressure, by gently lifting the sutures, to occlude flow by 100% (as confirmed by laser Doppler flowmetry). The period of occlusion lasted for 30 min, followed by a 5.5 h period of reperfusion, which was accomplished by removal of these sutures (transient ischemia model, tMCAO). […] Sections were then scanned (both sides) the next day, and infarct area was measured using imaging software (Image J; Scion Corporation, Frederick, MD, USA). […] Data was analyzed by an investigator blinded to the treatment groups. […]

The next data set deals with infarct volume, MCAO. Also on record: method as in PMID 1299626, PMID 19417757, PMID 21946070, PMID 19175604, PMID 17697529. Conditions: cited from earlier work.
A further data set concerns global ischemia. Details: method as in PMID 16650838. Conditions: gerbils, given 5 min following 5 min of global ischemia, assessed four days later; cited from earlier work.

“Also recorded” adds a separate entry of the source. Like-named read-outs stand apart in the source and are kept apart here.

As for `O=C(O)CCCCC1CCSS1` (stereo not drawn) [LA, α-Lipoic acid], the Neuroprotection result in data set [1] (5 mg/kg (most effective dose), administered just prior to the beginning of reperfusion) was “did not result in significant neuroprotection”; in [1] (5 mg/kg, administered prior to both occlusion and reperfusion), “produced neuroprotection”.

On to `CC(C)[N+](C)(CCOC(=O)C1c2ccccc2Oc2ccccc21)C(C)C` [Propantheline, reference compound], for which the half-life – broadly, the time needed for the level to fall by half in the phase considered – at 1 µM in data set [2] (read-out: Half-Life, 1st) came to 7.2 min; in data set [2] (read-out: Half-Life, 2nd) it was 7.2 min; in data set [2] (read-out: Half-Life, Mean), 7 min.

As for `CCCOc1cc(N)ccc1C(=O)OCCN(CC)CC` [Propoxycaine, reference compound], the half-life at 1 µM in [2] (read-out: Half-Life, 1st) is less than 30 min; in data set [2] (read-out: Half-Life, 2nd), less than 30 min; in data set [2] (read-out: Half-Life, Mean), less than 30 min.

For the compound `COc1cc(C(C)=O)ccc1OC(=O)CCCCC1CCSS1` (centres unmarked) [UPEI-100], the “% Compound Remaining, 1st” value turned out to be 100.0% in [2] (incubation 0 min); 92.7% in [2] (incubation 30 min); 100.7% in data set [2] (incubation 60 min); 99.5% in data set [2] (incubation 90 min); 109.9% in data set [2] (incubation 120 min); 100.0% in “in vitro” (0 h). Moreover, the “% Compound Remaining, 1st” value in “in vitro” (0.25 h), in the data set “in vitro” (0.5 h), in the data set “in vitro” (0.75 h) and in “in vitro” (1 h) was 0.0% in each case. Further, the “% Compound Remaining, 2nd” value in [2] (incubation 0 min) was 100.0%; in data set [2] (incubation 30 min) it was 126.6%; in [2] (incubation 60 min), 116.0%; in [2] (incubation 90 min), 111.2%; in data set [2] (incubation 120 min) it was 140.1%; in the data set “in vitro” (0 h) it was 100.0%. The “% Compound Remaining, 2nd” value in the data set “in vitro” (0.25 h), in the data set “in vitro” (0.5 h), in “in vitro” (0.75 h) and in “in vitro” (1 h) was 0.0% in each case. In addition, the “% Compound Remaining, Mean” value in data set [2] (incubation 0 min) came to 100%; in [2] (incubation 30 min) it was 110%; in data set [2] (incubation 60 min), 108%; in data set [2] (incubation 90 min), 105%; in data set [2] (incubation 120 min) it was 125%; in “in vitro” (0 h) it was 100%. The “% Compound Remaining, Mean” value in the data set “in vitro” (0.25 h), in “in vitro” (0.5 h), in “in vitro” (0.75 h) and in “in vitro” (1 h) was 0% in each case. Further, the half-life at 1 µM in data set [2] (read-out: Half-Life, 1st) was more than 120 min; in data set [2] (read-out: Half-Life, 2nd), more than 120 min; in data set [2] (read-out: Half-Life, Mean) it was more than 120 min. In addition, in the data set on NADPH oxidase, the “Inhibition of NADPH oxidase” value was “inhibited NADPH oxidase”. Further, in data set [3], the “Detection in tissue samples / central nervous system following intravenous injection” value is reported as “undetectable; also recorded: unable to detect; also recorded: could not be detected”. Further, the “Flags (detection of test compound in the assay matrix)” value in the data set “in vitro” is on record as “not detected in the assay at any time point”. In “in vitro”, the microsomal CLint (as a rule, the rate of metabolic loss divided by the concentration) at 100 nM is 6030 µL/min/mg. The half-life at 100 nM in “in vitro” (1st) was 1.1 min; in “in vitro” (2nd), less than 15 min; in the data set “in vitro” (Mean) it was approximately 1 min. The “Dose at which infarct volume was reduced” value in data set [4] (same in vivo model of reperfusion-injury, previously observed) is recorded as 0.1 mg/kg. In addition, the “Dose for equivalent neuroprotection compared to each parent compound (lipoic acid, apocynin), fold lower” value in data set [4] (tMCAO, previous work) was 100 fold.

Turning to `COc1cc(C(C)=O)ccc1OCCCCCC1CCSS1` (centres unmarked) [UPEI-104], the “% Compound Remaining, 1st” value in [2] (incubation 0 min) turned out to be 100.0%; in data set [2] (incubation 30 min), 89.3%; in data set [2] (incubation 60 min) it was 95.5%; in data set [2] (incubation 90 min) it was 82.9%; in data set [2] (incubation 120 min), 77.2%. In addition, the “% Compound Remaining, 2nd” value in data set [2] (incubation 0 min) turned out to be 100.0%; in [2] (incubation 30 min), 112.0%; in data set [2] (incubation 60 min) it was 98.6%; in [2] (incubation 90 min) it was 76.4%; in data set [2] (incubation 120 min), 90.1%. In addition, the “% Compound Remaining, Mean” value in [2] (incubation 0 min) is on record as 100%; in [2] (incubation 30 min), 101%; in [2] (incubation 60 min) it was 97%; in [2] (incubation 90 min), 80%; in data set [2] (incubation 120 min), 84%. Moreover, the half-life at 1 µM was 352 min in [2] (read-out: Half-Life, 1st); 351 min in data set [2] (read-out: Half-Life, 2nd); more than 120 min in data set [2] (read-out: Half-Life, Mean). Further, the “Infarct volume vs vehicle group” value in [5] (0.1 mg/kg i.v. 30 min prior to MCA occlusion, p < 0.05) is “significantly lower”. In addition, the “Effect on infarct volume as a function of dose” value in data set [5] (0.001–0.1 mg/kg i.v. 30 min prior to MCA occlusion) is recorded as “dose-dependent reduction in infarct volume”. Besides, the microsomal CLint at 100 nM in “in vitro” stood at 963 µL/min/mg. In addition, the half-life at 100 nM in “in vitro” (1st) was 7.3 min; in the data set “in vitro” (2nd) it was 7.1 min; in the data set “in vitro” (Mean), approximately 7 min.

For the compound `COc1cc(C(C)=O)ccc1O` [apocynin, 4-hydroxy-3-methoxyacetophenone], the Infarct volume result with infarct volume, MCAO (administered during occlusion of the middle cerebral artery) is recorded as “attenuation of infarct volume”. For the same compound, the Infarct volume benefit entry in the data set with infarct volume, MCAO (administration delayed following the onset of reperfusion) is listed as “benefits were lost”. In addition, the “Neuronal degeneration, neuronal death and microglial activation” value with global ischemia is “decreased neuronal degeneration and delayed neuronal death and microglial activation”.
